The subject of the experiment is Plasmopara viticola. As to the kind of experiment: Activity against Peronospora of grapevines caused by Plasmopara viticola (comparative test, protective spray). The experiment is classed as in vivo. The note with it: leaves of potted grapevines sprayed to runoff, inoculated next day; infection on undersides of leaves determined visually; untreated 100%; active compound concentration not given. How it is done:
The active compounds were prepared as a stock solution comprising 25 mg of active compound which was made up to 10 ml using a mixture of acetone and/or DMSO and the emulsifier Uniperol® EL (wetting agent having emulsifying and dispersing action based on ethoxylated alkylphenols) in a volume ratio of solvent/emulsifier of 99/1. The mixture was then made up to 100 ml with water. This stock solution was diluted with the solvent/emulsifier/water mixture described to the concentration of active compounds stated below. Leaves of potted grapevines were sprayed to runoff point with an aqueous suspension having the concentration of active compound stated below. The next day, the undersides of the leaves were inoculated with an aqueous sporangia suspension of Plasmopara viticola. The grapevines were then initially placed in a water vapor-saturated chamber at 24° C. for 48 hours and then in a greenhouse at temperatures between 20 and 30° C. for 5 days. After this time, the plants were again placed into a moist chamber for 16 hours to accelerate sporangiophore eruption. The extent of the development of the infection on the undersides of the leaves was then determined visually.

The source of these data is patent US20080125445A1, “5,6-Dialkyl-7-Amino-Azolopyrimidines, Method For Their Production, Their Use For Controlling Pathogenic Fungi and Agents Containing Said Compounds” (BASF Aktiengesellschaft, priority 2005, published 2008).

Turning to `CCCCc1nc2cc(C)nn2c(N)c1CCCC` [Compound 17], the Infection in % came to 25%.

In turn, `CCCCCc1nc2cc(C)nn2c(N)c1CCCCC` [Compound I-1, 2-methyl-5,6-dipentylpyrazolo[1,5-a]pyrimidin-7-ylamine] returned an Infection in % of 3%.
